ChEMBL document CHEMBL5050859, “Gpx4 inhibitors, pharmaceutical compositions thereof, and their use for treating gpx4-mediated diseases” (2021)

tested on: Huh-7; test: Antiproliferative activity against human Huh-7 cells after 24 hrs by Cell Titer Glo assay; assay type: functional, cell-based; settings: Huh-7, 24 h

Row | SMILES | EC50 [nM]
1 | C#CC(=O)N(c1cccc(-c2ccn(C)n2)c1)C1(C(=O)NCc2ccccc2)CCOCC1 | 100
2 | COc1ccc(N(C(=O)CCl)C(C)C(=O)NCCc2ccccc2)cc1Cl (stereo not drawn) | 500
3 | C#CC(=O)N(c1ccc(OC)c(Cl)c1)C(C(=O)NCc1ccccc1)c1ccc(N)cc1 (stereo not drawn) | ≤ 100
4 | C#CC(=O)N(c1cccc(Cl)c1)C(C(=O)NCc1ccccc1)C1CC1 (stereo not drawn) | 100
5 | C#CC(=O)N(c1cccc(Cl)c1)C1(C(=O)NCC(=O)NCc2ccccc2C#N)CCOCC1 | 100
6 | C#CC(=O)N(c1cccc(Cl)c1)C1(C(=O)NCC(=O)O)CCOCC1 | > 10000
7 | C#CC(=O)N(c1cccc(Cl)c1)C(C(=O)NCc1ccccc1)c1cccc(N)c1 (stereo not drawn) | ≤ 100
8 | C#CC(=O)N(c1cc(Cl)ccc1F)C(C(=O)NCc1ccccc1)c1ccc(N)cc1 (stereo not drawn) | ≤ 100
9 | C#CC(=O)N(c1cccc(C(=O)OC)c1)C(C(=O)NCc1ccccc1)c1ccc(N)cc1 (stereo not drawn) | ≤ 100
10 | C#CC(=O)N(c1cccc(Cl)c1)C(C(=O)NCc1ccccc1)c1cccs1 (stereo not drawn) | ≤ 100
11 | Cn1ncc2cc(N(C(=O)CCCl)C3(C(=O)NCc4ccccc4)CCOCC3)ccc21 | > 10000
12 | C#CC(=O)N(c1cccc2nsnc12)C(C(=O)NCc1ccccc1)c1ccccc1 (stereo not drawn) | ≤ 100
13 | C#CC(=O)N(c1ccc(OC)cc1)C(C(=O)NC(C)(C)C)c1ccc(N)cc1 (stereo not drawn) | 500
14 | C#CC(=O)N(c1cccc(Cl)c1)C(C(=O)NCc1ccccc1)c1ccccc1 (stereo not drawn) | ≤ 100
15 | C#CC(=O)N(Cc1cc[nH]n1)C1(C(=O)NCc2ccccc2)CCOCC1 | > 10000
16 | C#CC(=O)N(c1ccc2scnc2c1)C(C(=O)NCc1ccccc1)c1ccccc1 (stereo not drawn) | ≤ 100
17 | C#CC(=O)N(c1cccc(Cl)c1)C1(C(=O)NCc2ccccc2)CCCC(C(=O)OC)C1 (stereo not drawn) | ≤ 100
18 | C#CC(=O)N(c1cccc(Cl)c1F)C(C(=O)NCc1ccccc1)c1ccc(N)cc1 (stereo not drawn) | ≤ 100
19 | Cn1ncc2cc(N(C(=O)C3CO3)C3(C(=O)NCc4ccccc4)CCOCC3)ccc21 (stereo not drawn) | > 10000
20 | O=C(CCl)N(c1cccc2nsnc12)C1(C(=O)NCCc2ccccc2)CCOCC1 | 500
21 | C#CC(=O)N(c1cccc(Cl)c1)C(C(=O)NCc1ccccc1)C1CCC(C(=O)OC)CC1 (stereo not drawn) | 100
22 | C#CC(=O)N(c1cccc(Cl)c1)C1(C(=O)NCC(=O)NCCO)CCOCC1 | 2000
23 | C#CC(=O)N(c1ccc(S(C)(=O)=O)cc1)C(C(=O)NC(C)(C)C)c1ccc(N)cc1 (stereo not drawn) | 2000
24 | C#CC(=O)N(c1ccc2c(c1)ncn2C)C1(C(=O)NCc2ccccc2)CCOCC1 | 500
25 | C#CC(=O)N(c1cccn2cnnc12)C(C(=O)NCc1ccccc1)c1ccccc1 (stereo not drawn) | 100

Row | SMILES | EC50 [nM]
26 | C#CC(=O)N(c1ccc(C(=O)OC)cc1)C(C(=O)NC(C)(C)C)c1ccc(N)cc1 (stereo not drawn) | ≤ 100
27 | CC#CC(=O)N(c1cccc(Cl)c1)C(C(=O)NCc1ccccc1)c1ccccc1 (stereo not drawn) | > 10000
28 | C#CC(=O)N(c1cccc2c1OCO2)C(C(=O)NCc1ccccc1)c1ccccc1 (stereo not drawn) | 100
29 | C#CC(=O)N(c1ccc(OC)c(Cl)c1)C(C(=O)NC(C)(C)C)c1cccc(N)c1 (stereo not drawn) | 100
30 | C#CC(=O)N(c1ccc(OC)cc1)C(C(=O)NC(C)(C)C)c1cccc(N)c1 (stereo not drawn) | 500
31 | CC(=O)N(c1ccc2c(cnn2C)c1)C1(C(=O)NCc2ccccc2)CCCOC1 (stereo not drawn) | > 10000
32 | CC#CC(=O)N(c1ccc(Cl)c(Cl)c1)C(C(=O)NCc1ccccc1)c1ccccc1 (stereo not drawn) | > 10000
33 | C#CC(=O)N(c1cccc(Cl)c1)C(C(=O)NC(C)(C)C)c1ccc(N)cc1 (stereo not drawn) | 100
34 | C#CC(=O)N(c1cccc(Cl)c1)C1(C(=O)NCC(=O)N2CCCC(O)C2)CCOCC1 (stereo not drawn) | 2000
35 | COc1ccc(N(C(=O)C#CCO)C(C(=O)NCCc2ccccc2)c2cccs2)cc1Cl (stereo not drawn) | 2000
36 | C#CC(=O)N(c1cccc(Cl)c1)C1(C(=O)NCc2ccccc2)CCCCC1 | ≤ 100
37 | C#CC(=O)N(c1cccc(OC)c1)C(C(=O)NC(C)(C)C)c1ccc(N)cc1 (stereo not drawn) | 100
38 | C=CC(=O)N(Cc1cccc(O)c1)C1(C(=O)NCc2ccccc2)CCOCC1 | > 10000
39 | C#CC(=O)N(c1cccc(Cl)c1)C1(C(=O)NCc2ccccc2)CCC(C(=O)OC)CC1 (stereo not drawn) | ≤ 100
40 | CC(C)N(C(=O)CCl)C(C(=O)NCCc1ccccc1)c1cccs1 (stereo not drawn) | > 10000
41 | C#CC(=O)N(c1cccc(C(=O)OC)c1)C(C(=O)NCc1ccccc1)c1cccc(N)c1 (stereo not drawn) | ≤ 100
42 | C#CC(=O)N(c1ccc2ncsc2c1)C(C(=O)NCc1ccccc1)c1ccccc1 (stereo not drawn) | 100
43 | COC(=O)c1cccc(N(C(=O)CCl)C(C(=O)NCCc2ccccc2)c2ccc([N+](=O)[O-])cc2)c1 (stereo not drawn) | 100
44 | Nc1cccc(N(C(=O)CCl)C(C(=O)NCCc2ccccc2)c2cccs2)c1 (stereo not drawn) | 2000
45 | CC(C)(C)NC(=O)C(c1ccc([N+](=O)[O-])cc1)N(C(=O)CCl)c1ccc(Cl)cc1 (stereo not drawn) | 2000
46 | C#CC(=O)N(c1ccc2c(c1)C(=O)OC2)C(C(=O)NCc1ccccc1)c1ccccc1 (stereo not drawn) | ≤ 100
47 | C#CC(=O)N(c1ccc(Cl)cc1)C(C(=O)NCc1ccccc1)c1cccc(N)c1 (stereo not drawn) | ≤ 100
48 | COc1ccc(N(C(=O)CCl)C2(C(=O)NCCc3ccccc3)CCOCC2)cc1Cl | ≤ 100
49 | C#CC(=O)N(c1cccc(Cl)c1)[C@]1(C(=O)NCc2ccccc2)CC[C@@H](O)CC1 | 100
50 | CC#CC(=O)N(c1ccc2c(cnn2C)c1)C1(C(=O)NCc2ccccc2)CCCOC1 (stereo not drawn) | 2000

Row | SMILES | EC50 [nM]
51 | C#CC(=O)N(c1ccc(Cl)cc1)C(C(=O)NC(C)(C)C)c1ccc(N)cc1 (stereo not drawn) | 100
52 | C=CC(=O)N(c1ccc(OC)c(Cl)c1)C(C(=O)NCc1ccccc1)c1cccc(N)c1 (stereo not drawn) | > 10000
53 | C#CC(=O)N(c1cccc(C(N)=O)c1)C(C(=O)NCc1ccccc1)c1cccc(N)c1 (stereo not drawn) | > 10000
54 | C#CC(=O)N(c1cccc(Cl)c1)C(C(=O)NCc1ccc(F)cc1)c1ccccc1 (stereo not drawn) | ≤ 100
55 | COc1ccc(N(C(=O)CCl)C(C(=O)NCCc2ccccc2)c2ccc(N)cc2)cc1Cl (stereo not drawn) | 100
56 | COc1ccc(N(C(=O)CCl)C(C(=O)NCCc2ccccc2)c2cccc(N)c2)cc1Cl (stereo not drawn) | 100
57 | C#CC(=O)N(c1cccc(F)c1)C(C(=O)NCc1ccccc1)c1ccc(N)cc1 (stereo not drawn) | 100
58 | C#CC(=O)N(c1cccc(NC(C)=O)c1)C(C(=O)NCc1ccccc1)c1cccc(N)c1 (stereo not drawn) | 2000
59 | C#CC(=O)N(c1ccc2c(cnn2C)c1)C1(C(=O)NCc2ccccc2)CCCC(=O)C1 (stereo not drawn) | 100
60 | C#CC(=O)N(c1cccc2nsnc12)C1(C(=O)NCc2ccccc2)CCOCC1 | ≤ 100
61 | C#CC(=O)N(c1cccc(Cl)c1)C1(C(=O)NCc2ccccc2)CCC(F)(F)CC1 | ≤ 100
62 | O=C(CCl)N(c1cccc2nsnc12)C1(C(=O)NCc2ccccc2)CCOCC1 | 100
63 | N#CCC(=O)N(c1cccc(Cl)c1)C1(C(=O)NCc2ccccc2)CCOCC1 | > 10000
64 | C#CC(=O)N(c1ccc(C#N)cc1)C(C(=O)NCc1ccccc1)c1cccc(N)c1 (stereo not drawn) | ≤ 100
65 | C#CC(=O)N(c1cccc(Cl)c1)C(C(=O)NCC1COC1)c1ccccc1 (stereo not drawn) | ≤ 100
66 | C#CC(=O)N(c1ccc(O)cc1)C(C(=O)NCc1ccccc1)c1ccc(N)cc1 (stereo not drawn) | 2000
67 | C#CC(=O)N(c1cccc(O)c1)C(C(=O)NCc1ccccc1)c1ccc(N)cc1 (stereo not drawn) | 2000
68 | C#CC(=O)N(c1ccc2scnc2c1)C1(C(=O)NCc2ccccc2)CCOCC1 | 100
69 | O=C(NCCc1ccccc1)C(c1ccc([N+](=O)[O-])cc1)N(Cc1cccs1)C(=O)CCl (stereo not drawn) | 2000
70 | Nc1ccc(C(C(=O)NCCc2ccccc2)N(C(=O)CCl)c2cccc(Cl)c2)cc1 (stereo not drawn) | 500
71 | C#CC(=O)N(c1cccc(Cl)c1)C1(C(=O)NCC(=O)NCc2ccccc2)CCOCC1 | 100
72 | C#CC(=O)N(c1cccc(Cl)c1)C(C(=O)NCc1ccccc1F)c1ccccc1 (stereo not drawn) | 100
73 | C#CC(=O)N(c1cccc(Cl)c1)C1(C(=O)NCc2ccccc2)CCC(=O)CC1 | ≤ 100
74 | C#CC(=O)N(c1cccc2c1CCC2=O)C(C(=O)NCc1ccccc1)c1ccccc1 (stereo not drawn) | ≤ 100
75 | C#CC(=O)N(c1cccc(Cl)c1F)C(C(=O)NCc1ccccc1)c1ccccc1 (stereo not drawn) | 100

Row | SMILES | EC50 [nM]
76 | CC#CC(=O)N(c1ccc2c(cnn2C)c1)C1(C(=O)NCc2ccccc2)CCCC(C(=O)OC)C1 (stereo not drawn) | > 10000
77 | C#CC(=O)N(c1cc(Cl)ccc1Cl)C(C(=O)NCc1ccccc1)c1ccccc1 (stereo not drawn) | ≤ 100
78 | C#CC(=O)N(C1CCC1)C1(C(=O)NCc2ccccc2)CCCC(C(=O)OC)C1 (stereo not drawn) | 500
79 | C#CC(=O)N(c1cccc(Cl)c1)C(C(=O)NCC1CCOCC1)c1ccccc1 (stereo not drawn) | ≤ 100
80 | C#CC(=O)N(c1cc(Cl)ccc1F)C(C(=O)NCc1ccccc1)c1cccc(N)c1 (stereo not drawn) | ≤ 100
81 | C#CC(=O)N(c1ccc2c(cnn2C)c1)C1(C(=O)NCc2ccccc2)CCCC(C(=O)OC)C1 (stereo not drawn) | ≤ 100
82 | C#CC(=O)N(c1cccc(NS(C)(=O)=O)c1)C(C(=O)NCc1ccccc1)c1cccc(N)c1 (stereo not drawn) | 2000
83 | C#CC(=O)N(C1CCC(=O)N(C)C1)C(C(=O)NCc1ccccc1)c1ccccc1 (stereo not drawn) | 2000
84 | O=C(NCCc1ccccc1)C(c1ccc([N+](=O)[O-])cc1)N(C(=O)CCl)c1cccc(Cl)c1 (stereo not drawn) | 100
85 | C#CC(=O)N(c1cccc(Cl)c1)C1(C(=O)NCc2ccccc2)CCCC(=O)C1 (stereo not drawn) | ≤ 100
86 | Cn1ncc2cc(N(C(=O)CCl)C3(C(=O)NCCc4ccccc4)CCOCC3)ccc21 | 500
87 | C#CC(=O)N(c1cccc(Cl)c1)C1(C(=O)NCS(=O)(=O)c2ccc(C)cc2)CCOCC1 | 500
88 | C#CC(=O)N(c1cccc(C#N)c1)C(C(=O)NCc1ccccc1)c1ccc(N)cc1 (stereo not drawn) | 100
89 | C#CC(=O)N(c1cccc(Cl)c1)C1(C(=O)NCc2ccccc2)CCCOC1 (stereo not drawn) | ≤ 100
90 | COc1cccc(N(C(=O)CCl)C(C(=O)NCCc2ccccc2)c2ccc([N+](=O)[O-])cc2)c1 (stereo not drawn) | 100
91 | C#CC(=O)N(Cc1cccc(O)c1)C1(C(=O)NCc2ccccc2)CCOCC1 | ≤ 100
92 | C#CC(=O)N(c1cccc(Cl)c1)C(C(=O)NCc1ccccc1)c1ccccc1F (stereo not drawn) | ≤ 100
93 | C#CC(=O)N(c1ccc(OC)c(Cl)c1)C(C(=O)NCc1ccccc1)c1ccccc1 (stereo not drawn) | ≤ 100
94 | C#CC(=O)N(c1cccc(Cl)c1Cl)C(C(=O)NCc1ccccc1)c1ccccc1 (stereo not drawn) | ≤ 100
95 | C#CC(=O)N(c1ccc(OC)c(Cl)c1)C(C(=O)NCc1ccccc1)c1cccc(N)c1 (stereo not drawn) | ≤ 100
96 | C#CC(=O)N(c1cccc(NC(C)=O)c1)C(C(=O)NCc1ccccc1)c1ccc(N)cc1 (stereo not drawn) | 2000
97 | C#CC(=O)N(c1cccc(O)c1)C(C(=O)NCc1ccccc1)c1cccc(N)c1 (stereo not drawn) | ≤ 100
98 | CC(Cl)C(=O)N(c1ccc2c(cnn2C)c1)C1(C(=O)NCc2ccccc2)CCOCC1 (stereo not drawn) | > 10000
